In article PMC7738869, “A novel STAT3 inhibitor W2014-S regresses human non-small cell lung cancer xenografts and sensitizes EGFR-TKI acquired resistance” (Theranostics, 2021):
Values joined by “and” are separate entries in the source; they are usually repeats but may differ in a detail not shown here. Equal entries are not always repeated. Where two headings read alike, the source gives them in different places.

Assays:
STAT3-STAT3 dimerization = STAT3-STAT3 dimerization (Homo sapiens, UniProt P40763); assay: Co-immunoprecipitation of HA-STAT3 and Flag-STAT3 in HEK-293T cells; format: cell-based; set-up: expressed in transfected cells; settings: 24 h, 50 ng/mL EGF 30 min
Chain of STAT3-STAT3 dimerization (P40763 whole entry): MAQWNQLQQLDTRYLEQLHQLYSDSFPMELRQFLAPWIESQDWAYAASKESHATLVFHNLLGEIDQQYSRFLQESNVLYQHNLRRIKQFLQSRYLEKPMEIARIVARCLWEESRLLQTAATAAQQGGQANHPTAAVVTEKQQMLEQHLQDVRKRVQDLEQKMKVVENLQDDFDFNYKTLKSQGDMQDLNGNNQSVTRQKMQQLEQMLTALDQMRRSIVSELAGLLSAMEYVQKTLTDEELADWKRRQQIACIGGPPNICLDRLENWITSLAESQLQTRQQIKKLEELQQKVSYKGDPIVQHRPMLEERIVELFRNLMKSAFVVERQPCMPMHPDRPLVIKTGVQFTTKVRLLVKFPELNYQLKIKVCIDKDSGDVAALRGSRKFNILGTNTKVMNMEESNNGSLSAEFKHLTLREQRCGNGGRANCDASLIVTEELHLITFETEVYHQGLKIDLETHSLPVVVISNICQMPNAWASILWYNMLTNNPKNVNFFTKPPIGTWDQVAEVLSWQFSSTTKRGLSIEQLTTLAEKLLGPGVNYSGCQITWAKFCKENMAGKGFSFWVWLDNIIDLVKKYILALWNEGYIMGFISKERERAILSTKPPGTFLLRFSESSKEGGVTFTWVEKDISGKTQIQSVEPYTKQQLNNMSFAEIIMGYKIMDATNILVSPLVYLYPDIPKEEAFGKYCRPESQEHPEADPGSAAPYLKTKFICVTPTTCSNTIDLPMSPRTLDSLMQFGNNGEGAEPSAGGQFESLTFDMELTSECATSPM
Procedure: Cells or tumor tissue were lysed with RIPA buffer (Beyotime, Shanghai, China) supplemented with protease inhibitors (Beyotime, Shanghai, China) and phosphatase inhibitors (Bimake, USA). Lysates were denatured by heating for 5 min at 99 °C and loaded on 4-10% SDS-polyacrylamide gel electrophoresis. Then the proteins were transferred to polyvinylidene fluoride (PVDF) membranes (Millipore, USA). The membranes were blocked and probed with primary antibodies and secondary HPR-conjugated antibodies. At last the membranes were detected by chemiluminescence (Tanon, Shanghai, China). For co-immunoprecipitation experiments, 293T cells were plated and grew to about 80% confluency, then co-transfected with plasmids of HA-STAT3 and Flag-STAT3 using Lipofectamine 2000. […] Cells were lysed with IP RIPA buffer (Beyotime, Shanghai, China) supplemented with protease inhibitors (Beyotime, Shanghai, China) and phosphatase inhibitors (Bimake, America), and lysates were cultured with Anti-flag Affinity Gel (B23102, Bimake, USA) overnight at 4 ℃. The gel was washed by PBST for three times and added 1×loading buffer and denatured by heating for 5 min at 99 ℃. Then the proteins were resolved on SDS-PAGE, transferred to PVDF membranes and analysed with immunoblotting.

Bcl-2, Bcl-xL and c-Myc = assay: Western blot of STAT3 downstream genes in A549 and PC-9 cells; format: cell-based, human; settings: A549 and PC-9, 0-3 μM, 24 h
Procedure: Cells or tumor tissue were lysed with RIPA buffer (Beyotime, Shanghai, China) supplemented with protease inhibitors (Beyotime, Shanghai, China) and phosphatase inhibitors (Bimake, USA). Lysates were denatured by heating for 5 min at 99 °C and loaded on 4-10% SDS-polyacrylamide gel electrophoresis. Then the proteins were transferred to polyvinylidene fluoride (PVDF) membranes (Millipore, USA). The membranes were blocked and probed with primary antibodies and secondary HPR-conjugated antibodies. At last the membranes were detected by chemiluminescence (Tanon, Shanghai, China). For co-immunoprecipitation experiments, 293T cells were plated and grew to about 80% confluency, then co-transfected with plasmids of HA-STAT3 and Flag-STAT3 using Lipofectamine 2000. After 24 h, cells were treated with different concentrations of W2014-S for following 24 h, and stimulated with IL-6 (100 ng/mL) for 1 h. Cells were lysed with IP RIPA buffer (Beyotime, Shanghai, China) supplemented with protease inhibitors (Beyotime, Shanghai, China) and phosphatase inhibitors (Bimake, America), and lysates were cultured with Anti-flag Affinity Gel (B23102, Bimake, USA) overnight at 4 ℃. The gel was washed by PBST for three times and added 1×loading buffer and denatured by heating for 5 min at 99 ℃. Then the proteins were resolved on SDS-PAGE, transferred to PVDF membranes and analysed with immunoblotting.

Pharmacokinetic study = format: in vivo, SD rats; settings: for MRT inf: read-out: MRTINF_obs
Procedure: W2014-S was given to SD rats (male, 230-260g, n = 6) by gavage and intravenous administration. The rats were fasted for 12 h before administration and remained fasting for 2 h. For oral gavage, W2014-S was dissolved in DMSO/0.5% HPMC (5/95, v/v/), and W2014-S was dissolved in DMSO/EtOH/PEG300/0.9% NaCl (5/5/40/50, v/v/v/v) for intravenous administration. The pharmacokinetic (PK) profiles were next evaluated in SD rats.

C[C@H](Oc1ccc(-c2nc3nc(C4=CCN(C(=O)OC(C)(C)C)CC4)ccc3[nH]2)cc1)c1ccccc1 [W2014-S]
binding of HA-STAT3 and Flag-STAT3 (STAT3 dimerization) (STAT3-STAT3 dimerization): inhibited the binding of HA-STAT3 and Flag-STAT3 in intact cells even at 0.3 μM | expression of STAT3 downstream genes Bcl-2, Bcl-xL and c-Myc (Bcl-2, Bcl-xL and c-Myc): inhibited by W2014-S dose-dependently | Concentration in rat plasma, individual animals 4-6 (Pharmacokinetic study; i.v. 3 mg/kg, 0.05 h, 3 mg/kg): 335 ng/mL and 339 ng/mL | Concentration in rat plasma, individual animals 4-6 (Pharmacokinetic study; i.v. 3 mg/kg, 0.25 h, 3 mg/kg): 145 ng/mL and 134 ng/mL | Concentration in rat plasma, individual animals 4-6 (Pharmacokinetic study; i.v. 3 mg/kg, 0.75 h, 3 mg/kg): 66.9 ng/mL and 80.1 ng/mL | Concentration in rat plasma, individual animals 4-6 (Pharmacokinetic study; i.v. 3 mg/kg, 2.00 h, 3 mg/kg): 17.6 ng/mL and 22.6 ng/mL | Concentration in rat plasma, individual animals 4-6 (Pharmacokinetic study; i.v. 3 mg/kg, 4.00 h, 3 mg/kg): 3.60 ng/mL and 5.00 ng/mL | Concentration in rat plasma, individual animals 4-6 (Pharmacokinetic study; i.v. 3 mg/kg, 8.00 h, 3 mg/kg): 1.10 ng/mL and 2.60 ng/mL and 2.20 ng/mL | Concentration in rat plasma, individual animals 4-6 (Pharmacokinetic study; i.v. 3 mg/kg, 24.0 h, 3 mg/kg): 1.30 ng/mL and 1.20 ng/mL | concentration at 0.05 h (Pharmacokinetic study; male, SD, rat, plasma, iv, 3 mg/kg, i.v. 3 mg/kg, 0.05 h, read-out: Concentration in rat plasma, individual animals 4-6): 454 ng/mL | concentration at 0.05 h (Pharmacokinetic study; male, SD, rat, plasma, iv, 3 mg/kg, i.v. 3 mg/kg, 0.05 h, read-out: Concentration in rat plasma, mean): 376 ng/mL | concentration at 0.25 h (Pharmacokinetic study; male, SD, rat, plasma, iv, 3 mg/kg, i.v. 3 mg/kg, 0.25 h, read-out: Concentration in rat plasma, individual animals 4-6): 159 ng/mL | concentration at 0.25 h (Pharmacokinetic study; male, SD, rat, plasma, iv, 3 mg/kg, i.v. 3 mg/kg, 0.25 h, read-out: Concentration in rat plasma, mean): 146 ng/mL | concentration at 0.75 h (Pharmacokinetic study; male, SD, rat, plasma, iv, 3 mg/kg, i.v. 3 mg/kg, 0.75 h, read-out: Concentration in rat plasma, individual animals 4-6): 59.3 ng/mL | concentration at 0.75 h (Pharmacokinetic study; male, SD, rat, plasma, iv, 3 mg/kg, i.v. 3 mg/kg, 0.75 h, read-out: Concentration in rat plasma, mean): 68.8 ng/mL | concentration at 2 h (Pharmacokinetic study; male, SD, rat, plasma, iv, 3 mg/kg, i.v. 3 mg/kg, 2.00 h, read-out: Concentration in rat plasma, individual animals 4-6): 13.4 ng/mL | concentration at 2 h (Pharmacokinetic study; male, SD, rat, plasma, iv, 3 mg/kg, i.v. 3 mg/kg, 2.00 h, read-out: Concentration in rat plasma, mean): 17.9 ng/mL | concentration at 4 h (Pharmacokinetic study; male, SD, rat, plasma, iv, 3 mg/kg, i.v. 3 mg/kg, 4.00 h, read-out: Concentration in rat plasma, individual animals 4-6): 2.9 ng/mL | concentration at 4 h (Pharmacokinetic study; male, SD, rat, plasma, iv, 3 mg/kg, i.v. 3 mg/kg, 4.00 h, read-out: Concentration in rat plasma, mean): 3.83 ng/mL | concentration at 8 h (Pharmacokinetic study; male, SD, rat, plasma, iv, 3 mg/kg, i.v. 3 mg/kg, 8.00 h): 1.97 ng/mL | concentration at 24 h (Pharmacokinetic study; male, SD, rat, plasma, iv, 3 mg/kg, i.v. 3 mg/kg, 24.0 h, read-out: Concentration in rat plasma, individual animals 4-6): 0.9 ng/mL | concentration at 24 h (Pharmacokinetic study; male, SD, rat, plasma, iv, 3 mg/kg, i.v. 3 mg/kg, 24.0 h, read-out: Concentration in rat plasma, mean): 1.13 ng/mL | half-life (Pharmacokinetic study; male, SD, rat, plasma, iv, 3 mg/kg, i.v. 3 mg/kg, individual animals 4-6): 15.3 h | AUC(0-inf) (Pharmacokinetic study; male, SD, rat, plasma, iv, 3 mg/kg, rat, i.v. 3 mg/kg, individual animals 4-6, read-out: AUCINF_obs): 228 ng·h/mL | AUC(0-t) (Pharmacokinetic study; male, SD, rat, plasma, iv, 3 mg/kg, rat, i.v. 3 mg/kg, individual animals 4-6, read-out: AUClast): 208 ng·h/mL | clearance (Pharmacokinetic study; male, SD, rat, plasma, iv, 3 mg/kg, rat, i.v. 3 mg/kg, individual animals 4-6, read-out: CL_obs): 219 mL/min/kg | MRT inf (Pharmacokinetic study; male, SD, rat, plasma, iv, 3 mg/kg, rat, i.v. 3 mg/kg, individual animals 4-6): 5.79 h | MRT inf (Pharmacokinetic study; male, SD, rat, plasma, iv, 3 mg/kg, rat, i.v. 3 mg/kg, mean): 6.3 h | concentration at 0.25 h (Pharmacokinetic study; male, SD, rat, plasma, po, 10 mg/kg, p.o. 10 mg/kg, 0.25 h, read-out: Concentration in rat plasma, mean): 19.6 ng/mL | concentration at 0.5 h (Pharmacokinetic study; male, SD, rat, plasma, po, 10 mg/kg, p.o. 10 mg/kg, 0.50 h): 22.5 ng/mL | concentration at 1 h (Pharmacokinetic study; male, SD, rat, plasma, po, 10 mg/kg, p.o. 10 mg/kg, 1.00 h): 16.1 ng/mL | concentration at 2 h (Pharmacokinetic study; male, SD, rat, plasma, po, 10 mg/kg, p.o. 10 mg/kg, 2.00 h, read-out: Concentration in rat plasma, individual animals 1-3): 5.7 ng/mL | concentration at 2 h (Pharmacokinetic study; male, SD, rat, plasma, po, 10 mg/kg, p.o. 10 mg/kg, 2.00 h, read-out: Concentration in rat plasma, mean): 7.23 ng/mL | concentration at 4 h (Pharmacokinetic study; male, SD, rat, plasma, po, 10 mg/kg, p.o. 10 mg/kg, 4.00 h, read-out: Concentration in rat plasma, mean): 7.83 ng/mL | concentration at 8 h (Pharmacokinetic study; male, SD, rat, plasma, po, 10 mg/kg, p.o. 10 mg/kg, 8.00 h): 0.633 ng/mL | concentration at 24 h (Pharmacokinetic study; male, SD, rat, plasma, po, 10 mg/kg, p.o. 10 mg/kg, 24.0 h, read-out: Concentration in rat plasma, mean): 0 ng/mL
